This note sets out measurements from US11066413B2, “Aminopyrimidine five-membered heterocyclic compound, and intermediate, preparation method, pharmaceutical composition and application thereof” (GUANGZHOU MAXINOVEL PHARMACEUTICALS CO., LTD., priority 2017, dated 2021).

For assay [1], the target named is T1, hA2A receptor (Homo sapiens (Human), UniProt P29274). Description: binding affinity IC50 to hA2A receptor (SPA beads, Effect Embodiment 1). The settings on record: A2A receptor membrane, 1 hour at room temperature, read-out: IC50 values of compound 1 binding affinity to hA2A receptor. The procedure: evaluation experiment of the binding affinity IC50 of the compound 1 to hA2A receptor.
Experimental procedure • 1. Preparation of the test compound. • 1) The compound mother plate (1500 rpm, 1 minute) was centrifuged; • 2) 50 Nanoliters was transferred from the compound mother plate to the reaction plate by a nano-sound sonic pipetting system; • 2. Preparation of buffer medium membrane, preparation of beads suspension; • 1) DMSO was added to the assay buffer, final concentration of DMSO was 1%; • 2) homogenized A2A receptor membrane was connected to a 1 mL syringe five times by a No. 26 needle (to avoid air bubbles); • 3) the buffer, A2A receptor membrane and ADA were mixed, and was let stand for 15 minutes at room temperature; • 4) SPA beads were added and mixed well with A2A receptor membrane; • 3. Preparation of radioisotope buffer • 4. Mix reaction reagents • 1) 20 μL of radioactive buffer solution was added into the reaction plate; • 2) 30 μL of membrane and […] suspension was added into the reaction plate; • 3) the plate was sealed and incubated for 1 hour at room temperature with vigorous mixing and shaking; • 4) the beads were precipitated for 4-5 minutes before reading. • 5) Reading with Microbeta; • 5. Data processing

Assay [2] deals with T1, hA2A receptor. Description: binding affinity IC50 to hA2A receptor ([3H]-CGS 21680 filter binding, Effect Embodiment 2). Particulars: A2A membrane, [3H]-CGS 21680 (final 25 nM), 90 minutes at 25° C. The method, then: Evaluation experiment of the binding affinity IC50 of the compounds 1-61 to hA2A receptor
40 uL of ULTIMA GOLD scintillation fluid was added to each well and the CPM (count per minute) value was read by TopCount.

T1 sequence (P29274 whole entry): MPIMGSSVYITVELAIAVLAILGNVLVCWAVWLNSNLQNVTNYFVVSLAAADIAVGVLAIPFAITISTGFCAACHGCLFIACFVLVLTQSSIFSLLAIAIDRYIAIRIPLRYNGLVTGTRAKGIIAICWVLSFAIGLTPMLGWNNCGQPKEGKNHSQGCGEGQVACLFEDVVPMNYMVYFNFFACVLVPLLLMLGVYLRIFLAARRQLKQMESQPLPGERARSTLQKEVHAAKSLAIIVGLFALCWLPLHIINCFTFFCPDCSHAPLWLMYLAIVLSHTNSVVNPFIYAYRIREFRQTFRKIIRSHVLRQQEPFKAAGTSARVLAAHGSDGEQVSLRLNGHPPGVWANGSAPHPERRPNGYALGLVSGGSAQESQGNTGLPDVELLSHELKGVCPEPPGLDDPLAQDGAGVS

Broadly, the IC50 is the midpoint of a concentration-inhibition curve. In the case of `Nc1nc(-c2ccco2)c2c(n1)C(Cc1ccccc1F)OC2=O` (centres unmarked) [Compound 1, 2-amino-7-(2-fluorobenzyl)-4-(furan-2-yl)-5H,7H-furo[3,4-d]pyrimidin-5-one], the results for the concentration for half-maximal inhibition (IC50) on hA2A receptor [1] and on hA2A receptor [2] were 79 nM and 14.7 nM, respectively.

At hA2A receptor [2], `Cc1ccc(-c2nc(N)nc3c2C(=O)N(C)C3Cc2cc[n+]([O-])cc2)o1` (centres unmarked) [Compound 58, 4-((2-amino-6-methyl-4-(5-methylfuran-2-yl)-5-carbonyl-5H-pyrrolo[3,4-d]pyrimidin-7(6H)-ene)methyl)-N-oxide pyridine] had an IC50 of 21 nM.

On hA2A receptor [2], `Cc1ccc(-c2nc(N)nc3c2C(=O)N(C)C3Cc2ccncc2)o1` (centres unmarked) [Compound 59, 2-amino-6-methyl-4-(5-methylfuran-2-yl)-7-(pyridin-4-ylmethyl)-6,7-dihydro-5-carbonyl-5H-pyrrolo[3,4-d]pyrimidine] returned an IC50 of 179 nM.

`Cc1ccc(-c2nc(N)nc3c2n(C)c(=O)n3-c2ccccc2C(F)(F)F)o1` [Compound 61, 2-amino-7-methyl-6-(5-methylfuran-2-yl)-9-(2-(trifluoromethyl)phenyl)-8(9H)-carbonyl-7H-purine] gave an IC50 on hA2A receptor [2] of 213 nM.
